Experimental data: patent publication US6482423B1, “Antimicrobial wipes which provide improved residual benefit versus gram positive bacteria” (The Procter & Gamble Company, priority 1999, dated 2002)

Test system: Vibrio fischerio
Assay: Microtox Response Test (bioluminescence of Microtox Acute Toxicity Reagent)
Assay type: cell-based
Conditions: pure anionic surfactant; index from EC50 Value (ppm) decreasing bioluminescence by 50%, 5 minutes
Excerpt: The biological activity/mildness of a pure surfactant can measured directly via a Microtox Response Test hereinafter described in the Analytical Methods section and can be reported as a Microtox Response Index. By “pure surfactant” it is meant a chemical composition consisting essentially of a single surfactant entity, wherein the entity has essentially one chain length, head group and salt counter ion. From a standpoint of high biological activity, preferred anionic surfactants of the antimicrobial cleansing compositions of the present invention have a Microtox Response Index of less that about 150, more preferably less than about 100 and most preferably less than about 50. […]
For surfactant compositions which are mixtures of surfactants rather than pure surfactants (this includes “commercial grade” surfactants which typically comprise mixtures of entities with different chain lengths and potentially have higher levels of impurities), the Microtox Response Index for any individual surfactant component is not a reliable measurement of biological activity or mildness. In the case of mixtures, the Microtox Index of each individual component can be determined and the weighted average used as the Index for the mixture if all the individual components of the mixture are known. […]

Compound | Microtox Index
CCCCCCCCCCCCOS(=O)(=O)O.N [ALS, ammonium lauryl sulfate] | 1.0
ammonium laureth-3 sulfate | 120
